Experimental data published in patent publication US11986450B2, “Methods and compositions for treating infection and inflammation with selenocyanate” (National Jewish Health, priority 2017, dated 2024).

How the values were obtained:
MRSA 43 = test: Bacterial sensitivity towards HOSCN killing; format: cell-based, methicillin-resistant Staphylococcus aureus (MRSA); conditions: MRSA 43, CF sputum isolate; HOSCN flux for 2 hours, GOX/LPO/SCN system, pH 7.4
Description: (§1) FIGS. 11A-11D. […] A lactoperoxidase (LPO) system was used to generate increasing fluxes of either HOSCN or HOSeCN in presence of 400 μM of either ^−SCN or ^−SeCN. LPO in the presence of a hydrogen peroxide generating system (glucose oxidase, GOX) can convert both thiocyanate and selenocyante to their respective hypopseudohalous acid species (HOSCN and HOSeCN) that are biocides. […] Bacterial inoculums (10^6 colony forming units, CFU) were incubated with host defense system for 2 hours at room temperature and bacteria were plated on LB agar plates and cell viability was determined by dilution and counting CFUs.
(§2) LPO in the presence of a hydrogen peroxide generating system (glucose oxidase, GOX) can convert both thiocyanate and selenocyante to their respective hypopseudohalous acid species (HOSCN and HOSeCN) that are biocides. […] Bacterial inoculums (10^6 colony forming units, CFU) were incubated with host defense system for 2 hours at room temperature and bacteria were plated on LB agar plates and cell viability was determined by dilution and counting CFUs. Lethal concentrations that kill 50% of bacteria (LC50) were determined by non-linear curve fitting the data.
(§3) Bacteria were incubated for 2 hour with LPO, ^−SCN or SeCN, glucose and increasing amounts of GOX. The flux (HOX) of either HOSCN or HOSeCN was determined from standard curves of GOX/LPO and either HOSCN or HOSeCN. LC50 values were determined by curve fitting the data with nonlinear regression of log (agonist) vs normalized response.

MRSA 44 = test: Bacterial sensitivity towards HOSCN killing; format: cell-based, methicillin-resistant Staphylococcus aureus (MRSA); conditions: MRSA 44, CF sputum isolate; HOSCN flux for 2 hours, GOX/LPO/SCN system, pH 7.4
Description: as §1, §2, §3

MRSA 45 = test: Bacterial sensitivity towards HOSCN killing; format: cell-based, methicillin-resistant Staphylococcus aureus (MRSA); conditions: MRSA 45, CF sputum isolate; HOSCN flux for 2 hours, GOX/LPO/SCN system, pH 7.4
Description: as §1, §2, §3

MRSA 46 = test: Bacterial sensitivity towards HOSCN killing; format: cell-based, methicillin-resistant Staphylococcus aureus (MRSA); conditions: MRSA 46, CF sputum isolate; HOSCN flux for 2 hours, GOX/LPO/SCN system, pH 7.4
Description: as §1, §2, §3

[1] = test system: Human bronchiolar lung cells (16HBE); test: Lung cell viability (LDH release) after HOSCN generation; format: cell-based; conditions: 2 hrs, about 120 μM/hr, viability 24 hrs later
Description: FIGS. 4A-4B. […] Studies were conducted under similar conditions that generated about 120 μM/hr of either HOCl or HOSCN. (FIG. 4A) Human bronchiolar lung cells (16HBE) or (FIG. 4B) Pseudomonas aeruginosa (PA01) were treated for 2 hrs with glucose oxidase (GOX) system (generates H2O2), enzyme alone (MPO or LPO), or full system (enzyme+GOX), or full system with […]. Viability was assessed 24 hrs later by lactate dehydrogenase release for lung cells or determination of colony forming units (CFUs) for bacteria.

[2] = test system: Sec-TrxR activity in J774 cells; test: Sec-TrxR activity induction in J774 cells; format: cell-based; conditions: 2 hours exposure, lysates measured 24 hours later
Description: FIG. 17. […] Cells were exposed to increasing concentrations of HOSCN, hydrogen peroxide or 100 ng/ml PA LPS for 2 hours and then cell lysates where measured 24 hours later for Sec-TrxR activity.
The role of extracellular SCN in modulating neutrophil responses to infectious stimuli, and to test how this impacts their ability to kill or suppress bacterial growth and attenuate pro-inflammatory environments is determined as provided for in Example 3 herein. De-identified human blood neutrophils from normal and CF subjects are used. Readouts include changes in bacterial growth rates, phagocytosis, and cytokine release over time correlated to changes in intracellular ^−SCN and Sec-TrxR levels. Additionally, how extracellular thiol levels modulate leukocyte function by changing intracellular thiol status and its known effects on dampening NFkB cell signaling pathways based on previous work with GSH (Gould, N. S., et al. (2011) Macropinocytosis of extracellular glutathione ameliorates tumor necrosis factor alpha release in activated macrophages. PLoS One 6, e25704) is disclosed. […] Since HOSCN is an oxidant and capable of redox signaling, examination of whether it can regulate its own metabolism by inducing Sec-TrxR expression is done.

[3] = molecular target: purified E. coli Cys-TrxR (Escherichia coli, UniProt P0A9P4); test: Sulfenic acid (dimedone label) formation, western blot; format: biochemical; conditions: 5 minutes exposure; reversible by NAC
Description: FIG. 15. Western blot of sulfenic acid (dimedione label) formation on purified E. coli Cys-TrxR after 5 minutes HOSCN exposure (molar ratios label each lane) or plus 1 minute PBS or N-acetylcysteine (NAC). For lane 8, H2O2 was used instead of HOSCN.
HOSCN is an interesting oxidant due to its affinity for only very acidic thiol groups on proteins (Barrett, T. J., et al. (2012) Inactivation of thiol-dependent enzymes by hypothiocyanous acid: role of sulfenyl thiocyanate and sulfenic acid intermediates. Free Radic Biol Med 52, 1075-1085). This property of HOSCN allows it to diffuse much easier to distant targets. Cys-TrxR has two cysteine residues in its active site that are acidic and it is expected that HOSCN oxidizes them as part of its mechanism of inactivation. Data has shown that dimedone labels sulfenic acid residues in E. coli Cys-TrxR upon selective thiol oxidation by HOSCN (FIG. 15). […] This probe can be used in tandem with western blotting and LC-MS approaches to characterize thiol oxidation of bacterial Cys-TrxRs. Although previous studies have looked at potential bacteria targets for oxidative inactivation by oxidants produced by haloperoxidases, Cys-TrxR was not previously identified (Tenovuo, J., and Pruitt, K. M. (1984) Relationship of the human salivary peroxidase system to oral health. J Oral Pathol 13, 573-584).

P. aeruginosa: PAO1 [4] = test: HOSCN reductase activity
P. aeruginosa: AMT0105L [5] = test: HOSCN reductase activity
E. coli: AB1157 = test: Viability after HOSCN exposure
P. aeruginosa: PAO1 [6] = test: Viability after HOSCN exposure
P. aeruginosa: AMT0105L [7] = test: Viability after HOSCN exposure; conditions: late disease antibiotic-resistant CF isolate
P. aeruginosa: AMT0294L = test: Viability after HOSCN exposure; conditions: late disease antibiotic-resistant CF isolate
[8] = Viability after HOSCN exposure; conditions: human, human bronchial epithelial (16HBE) cells

Sequence of purified E. coli Cys-TrxR (P0A9P4 whole entry): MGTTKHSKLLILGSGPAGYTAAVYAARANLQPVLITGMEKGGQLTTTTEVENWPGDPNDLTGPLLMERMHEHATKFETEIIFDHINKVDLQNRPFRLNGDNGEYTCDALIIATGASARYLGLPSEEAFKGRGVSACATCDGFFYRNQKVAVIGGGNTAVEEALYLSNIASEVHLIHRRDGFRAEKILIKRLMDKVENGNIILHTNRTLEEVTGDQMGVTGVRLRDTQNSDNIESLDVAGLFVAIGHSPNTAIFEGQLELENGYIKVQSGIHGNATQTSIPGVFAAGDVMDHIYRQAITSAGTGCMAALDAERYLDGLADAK

N#CSO [HOSCN, hypothiocyanite]
HOSCN IC50 (MRSA 43): 450 µM/h
HOSCN IC50 (MRSA 44): 260 µM/h
HOSCN IC50 (MRSA 45): 24 µM/h
HOSCN IC50 (MRSA 46): 10 µM/h
Lung cell viability [1]: spares host lung epithelial cells
Sec-TrxR activity [2]: induces Sec-TrxR activity
Oxidation of Cys-TrxR [3]: rapidly oxidized
Apparent Vmax (HOSCN reductase activity) (P. aeruginosa: PAO1 [4]): ND^c (No activity detected. Limit of detection = 0.5 nmol mg^−1 min^−1)
Apparent Vmax (HOSCN reductase activity) (P. aeruginosa: AMT0105L [5]): ND^c (No activity detected. Limit of detection = 0.5 nmol mg^−1 min^−1)
Viability (%) (E. coli: AB1157): 0%
Viability (%) (P. aeruginosa: PAO1 [6]): 0%
Viability (%) (P. aeruginosa: AMT0105L [7]): 0%
Viability (%) (P. aeruginosa: AMT0294L): 0%
viability [8]: 96.3 ± 1.6%
